From patent publication US20080107613A1, “Pharmaceutical composition comprising a macrolide t-cell immunomodulator and anti-photoaging agent” (priority 2004, published 2008)

Experiments:
[1] = tested on: UVB-induced apoptosis in mouse skin; conditions: hairless mice pretreated with 1% pimecrolimus cream or 0.1% tacrolimus ointment; UVB irradiation; versus untreated mice; cited from earlier work
[2] = tested on: DNA damage induced by UV light in mouse skin (epidermal thymine dimers); conditions: hairless mice pretreated with 1% pimecrolimus cream or 0.1% tacrolimus ointment; measured one hour after 1 J/cm^2 UVB irradiation; cited from earlier work
[3] = tested on: pyrimidine/thymine dimers in DNA extracted from epidermis; assay: Thymine dimer levels in human epidermis after simulated solar radiation (immunoslot blot, chemoluminescence image analysis); format: in vivo; conditions: skin sites of subjects with or without atopic dermatitis pretreated with pimecrolimus, 1 hour post-irradiation
Method: Similar results are obtained with skin from subjects receiving pimecrolimus, either with or without skin disease (atopic dermatitis), exposed to simulated solar radiation, when DNA is extracted from epidermis biopsied 1 hour and 24 hours after irradiation, as measured by pyrimidine dimer visualization by immunoslot blot and quantification by chemoluminescence image analysis: at 1 hour post-irradiation thymine dimer levels are clearly lower as compared to untreated control, indicative of reduced dimer production in skin sites pretreated with pimecrolimus.

| Compound | UVB-induced apoptosis [1] | decrease of amount of epidermal thymine dimers as compared to untreated mice [2] | thymine dimer levels as compared to untreated control [3] |
| --- | --- | --- | --- |
| C=CC[C@@H]1/C=C(\C)C[C@H](C)C[C@H](OC)[C@H]2O[C@@](O)(C(=O)C(=O)N3CCCC[C@H]3C(=O)O[C@H](/C(C)=C/[C@@H]3CC[C@@H](O)[C@H](OC)C3)[C@H](C)[C@@H](O)CC1=O)[C@H](C)C[C@@H]2OC [tacrolimus] | less pronounced | 84% |  |
| {[1E-(1R,3R,4S)]1R,9S,12S, 13R,14S,17R,18E,21S,23S,24R,25S,27R}-12-[2-(4-chloro-3-methoxycyclohexyl)-1-methylvinyl]-17-ethyl-1,14-dihydroxy-23,25-dimethoxy-13,19,21,27-tetramethyl-11,28,dioxa-4-azatricyclo [22.3.1.0(4,9)]octacos-18-ene-2,3,10,16-tetraone [pimecrolimus] | less pronounced | 89% | clearly lower |
